Experimental data taken from ChEMBL document CHEMBL3608207, “Synthesis, characterization, evaluation and molecular dynamics studies of 5, 6-diphenyl-1,2,4-triazin-3(2H)-one derivatives bearing 5-substituted 1,3,4-oxadiazole as potential anti-inflammatory and analgesic agents” (Eur J Med Chem, 2015).

Tests used:
Rattus norvegicus [1] = test: Anti-inflammatory activity in rat model of acute inflammation assessed as inhibition of carrageenan-induced paw oedema dosed at equimolar oral dose relative to 10 mg/kg, po indomethacin dosed 1 hr before carrageenan injection and measured 3 hrs after carrageenan injection; assay type: functional
Rattus norvegicus [2] = test: Anti-inflammatory activity in rat Freund's adjuvant induced arthritis model of chronic inflammation assessed as inhibition of right hind paw swelling at equimolar oral dose relative to 10 mg/kg, po indomethacin dosed after 14 days from day of adjuvant injection until day 21 and measured on day 18; assay type: functional
Rattus norvegicus [3] = test: Toxicity in healthy albino rat assessed as induction of lethargy up to 500 mg/kg, po; assay type: organism-based; details: in vivo
Rattus norvegicus [4] = test: (§1) Hepato-toxicity in rat Freund's adjuvant induced arthritis model of chronic inflammation assessed as assessed as SGPT level at equimolar oral dose relative to 10 mg/kg, po indomethacin dosed after 14 days from day of adjuvant injection until day 21 and measured on day 21 (reference value: 34.23 +/- 2.5 U/mL); assay type: organism-based; details: in vivo, 336 h
Mus musculus [5] = test: Analgesic activity in Swiss albino mouse assessed as reduction in formalin-induced paw licking by measuring time spent on licking during phase-2 at equimolar oral dose relative to 10 mg/kg, po indomethacin dosed 1 hr before formalin challenge and measured 30 mins after formalin injection; assay type: functional
Rattus norvegicus [6] = test: Toxicity in healthy albino rat assessed as induction of coma up to 500 mg/kg, po; assay type: organism-based; details: in vivo
Rattus norvegicus [7] = test: as §1, with “Renal toxicity” for “Hepato-toxicity”, “blood urea nitrogen” for “SGPT”, “23.48” for “34.23”, “1.8 mg/dL)” for “2.5 U/mL)”; assay type: organism-based; details: in vivo, 336 h
Rattus norvegicus [8] = test: Anti-inflammatory activity in rat Freund's adjuvant induced arthritis model of chronic inflammation assessed as inhibition of right hind paw swelling at equimolar oral dose relative to 10 mg/kg, po indomethacin dosed after 14 days from day of adjuvant injection until day 21 and measured on day 3; assay type: functional
Rattus norvegicus [9] = test: Anti-inflammatory activity in rat model of acute inflammation assessed as inhibition of carrageenan-induced paw oedema dosed at equimolar oral dose relative to 10 mg/kg, po indomethacin dosed 1 hr before carrageenan injection and measured 4 hrs after carrageenan injection; assay type: functional
Rattus norvegicus [10] = test: Anti-inflammatory activity in rat model of sub-chronic inflammation assessed as inhibition of cotton pellet-induced granuloma by measuring weight of granulation dosed once daily at equimolar oral dose relative to 10 mg/kg, po indomethacin for seven consecutive days from day of cotton pellet insertion (94.13 +/- 8.1 mg); assay type: functional
Rattus norvegicus [11] = test: Anti-inflammatory activity in rat Freund's adjuvant induced arthritis model of chronic inflammation assessed as inhibition of right hind paw swelling at equimolar oral dose relative to 10 mg/kg, po indomethacin dosed after 14 days from day of adjuvant injection until day 21 and measured on day 15; assay type: functional
Mus musculus [12] = test: Analgesic activity in Swiss albino mouse assessed as reduction in formalin-induced paw licking by measuring time spent on licking during phase-1 at equimolar oral dose relative to 10 mg/kg, po indomethacin dosed 1 hr before formalin challenge and measured 30 mins after formalin injection; assay type: functional
Rattus norvegicus [13] = test: Toxicity in healthy albino rat assessed as induction of convulsion up to 500 mg/kg, po; assay type: organism-based; details: in vivo
[14] = Octanol/water partition coefficient, log P of the compound by shake flask method; assay type: physicochemical
Rattus norvegicus [15] = test: Anti-inflammatory activity in rat model of acute inflammation assessed as inhibition of carrageenan-induced paw oedema dosed at equimolar oral dose relative to 10 mg/kg, po indomethacin dosed 1 hr before carrageenan injection and measured 5 hrs after carrageenan injection; assay type: functional
Rattus norvegicus [16] = test: as §1, with “alkaline phosphatase” for “SGPT”, “17.82” for “34.23”, “1.2 U)” for “2.5 U/mL)”; assay type: organism-based; details: in vivo, 336 h
Rattus norvegicus [17] = test: Toxicity in healthy albino rat assessed as induction of tremors up to 500 mg/kg, po; assay type: organism-based; details: in vivo
Rattus norvegicus [18] = test: Anti-inflammatory activity in rat model of acute inflammation assessed as inhibition of carrageenan-induced paw oedema dosed at equimolar oral dose relative to 10 mg/kg, po indomethacin dosed 1 hr before carrageenan injection and measured 5 hrs after carrageenan injection relative to 10 mg/kg, po indomethacin; assay type: functional
[19] = target: T1, Prostaglandin G/H synthase 1 (Ovis aries, UniProt P05979); test: Inhibition of ovine COX1 by oxidized TMPD detection based colorimetric assay
T1 sequence (P05979 whole entry): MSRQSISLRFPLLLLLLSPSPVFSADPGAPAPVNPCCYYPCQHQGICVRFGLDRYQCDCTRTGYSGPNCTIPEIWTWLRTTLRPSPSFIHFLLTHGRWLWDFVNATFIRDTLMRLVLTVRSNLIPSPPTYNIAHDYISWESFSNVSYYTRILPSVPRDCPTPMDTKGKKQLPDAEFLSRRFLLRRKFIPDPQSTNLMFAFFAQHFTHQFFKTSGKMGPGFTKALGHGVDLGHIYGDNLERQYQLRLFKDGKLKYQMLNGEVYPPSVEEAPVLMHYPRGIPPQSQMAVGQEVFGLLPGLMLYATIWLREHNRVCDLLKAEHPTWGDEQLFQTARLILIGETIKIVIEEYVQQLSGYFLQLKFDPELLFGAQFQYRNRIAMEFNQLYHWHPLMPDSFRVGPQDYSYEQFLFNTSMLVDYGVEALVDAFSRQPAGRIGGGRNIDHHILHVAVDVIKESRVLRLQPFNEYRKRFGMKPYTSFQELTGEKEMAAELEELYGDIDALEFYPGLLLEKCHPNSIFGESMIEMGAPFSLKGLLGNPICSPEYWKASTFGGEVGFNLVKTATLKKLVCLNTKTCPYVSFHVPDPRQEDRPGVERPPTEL

Rattus norvegicus [20] = test: Anti-inflammatory activity in rat model of acute inflammation assessed as inhibition of carrageenan-induced paw oedema dosed at equimolar oral dose relative to 10 mg/kg, po indomethacin dosed 1 hr before carrageenan injection and measured 1 hr after carrageenan injection; assay type: functional
Rattus norvegicus [21] = test: Anti-inflammatory activity in rat model of acute inflammation assessed as inhibition of carrageenan-induced paw oedema dosed at equimolar oral dose relative to 10 mg/kg, po indomethacin dosed 1 hr before carrageenan injection and measured 6 hrs after carrageenan injection; assay type: functional
Rattus norvegicus [22] = test: Anti-inflammatory activity in rat assessed as inhibition of arachidonic acid-induced paw edema dosed at equimolar oral dose relative to 10 mg/kg, po indomethacin dosed 30 mins before arachidonic acid injection and measured 1 hr after arachidonic acid injection; assay type: functional
Rattus norvegicus [23] = test: Anti-inflammatory activity in rat model of acute inflammation assessed as inhibition of carrageenan-induced paw oedema dosed at equimolar oral dose relative to 10 mg/kg, po indomethacin dosed 1 hr before carrageenan injection and measured 2 hrs after carrageenan injection; assay type: functional
Rattus norvegicus [24] = test: as §1, with “Renal toxicity” for “Hepato-toxicity”, “creatinine” for “SGPT”, “0.62” for “34.23”, “0.049 mg/dL)” for “2.5 U/mL)”; assay type: organism-based; details: in vivo, 336 h
Mus musculus [25] = test: Analgesic activity in Swiss albino mouse assessed as reduction in number of writhing episodes at equimolar oral dose relative to 10 mg/kg, po indomethacin measured 30 mins following acetic acid injection; assay type: functional
Rattus norvegicus [26] = test: Anti-inflammatory activity in rat Freund's adjuvant induced arthritis model of chronic inflammation assessed as inhibition of right hind paw swelling at equimolar oral dose relative to 10 mg/kg, po indomethacin dosed after 14 days from day of adjuvant injection until day 21 and measured on day 12; assay type: functional
[27] = In-vitro anti-inflammatory activity assessed as inhibition of denaturation of bovine serum albumin at equimolar dose relative to 10 mg indomethacin; assay type: functional
Rattus norvegicus [28] = test: as §1, with “Renal toxicity” for “Hepato-toxicity”, “total protein” for “SGPT”, “1.78” for “34.23”, “0.11 g/dL)” for “2.5 U/mL)”; assay type: organism-based; details: in vivo, 336 h

Row | SMILES | inhibition (INH) (Rattus norvegicus [1]) [%] | inhibition (INH) (Rattus norvegicus [2]) [%] | Activity (Rattus norvegicus [3]) | Activity (Rattus norvegicus [4]) [U/ml] | inhibition (INH) (Mus musculus [5]) [%] | Activity (Rattus norvegicus [6]) | Activity (Rattus norvegicus [7]) [mg/dL] | inhibition (INH) (Rattus norvegicus [8]) [%] | inhibition (INH) (Rattus norvegicus [9]) [%] | Activity (Rattus norvegicus [10]) [mg] | inhibition (INH) (Rattus norvegicus [11]) [%] | inhibition (INH) (Mus musculus [12]) [%] | Activity (Rattus norvegicus [13]) | logP [14] | inhibition (INH) (Rattus norvegicus [15]) [%] | Activity (Rattus norvegicus [16]) [U] | Activity (Rattus norvegicus [17]) | inhibition (INH) (Rattus norvegicus [18]) [%] | IC50 [19] [µM] | inhibition (INH) (Rattus norvegicus [20]) [%] | other results
1 | O=c1nc(-c2ccccc2)c(-c2ccccc2)nn1Cc1nnc(-c2ccc([N+](=O)[O-])cc2)o1 | 49.6 | 45.9 | Non-toxic | 45.28 | 78.04 | Non-toxic | 39.24 | 32.01 | 54.76 | 58.07 | 43.82 | 13.68 | Non-toxic | 3.71 | 55.96 | 19.92 | Non-toxic | 89.33 | 44.8 | 19.98 | inhibition (INH) (Rattus norvegicus [21]): 52.27%; inhibition (INH) (Rattus norvegicus [22]): 12.26%; inhibition (INH) (Rattus norvegicus [23]): 41.42%; Activity (Rattus norvegicus [24]): 0.88 mg/dL; inhibition (INH) (Mus musculus [25]): 74.84%; inhibition (INH) (Rattus norvegicus [26]): 41.78%; inhibition [27]: 78.4%; Activity (Rattus norvegicus [28]): 1.84 g/dL
2 | COc1ccc(-c2nnc(Cn3nc(-c4ccccc4)c(-c4ccccc4)nc3=O)o2)cc1 | 48.11 | 45.78 | Non-toxic | 41.31 | 74.38 | Non-toxic | 40.62 | 30.02 | 52.67 | 58.51 | 43.46 | 10.59 | Non-toxic | 3.56 | 55.25 | 22.11 | Non-toxic | 88.2 | 44.9 | 18.24 | inhibition (INH) (Rattus norvegicus [21]): 52.71%; inhibition (INH) (Rattus norvegicus [22]): 13.71%; inhibition (INH) (Rattus norvegicus [23]): 38.71%; Activity (Rattus norvegicus [24]): 0.91 mg/dL; inhibition (INH) (Mus musculus [25]): 70.21%; inhibition (INH) (Rattus norvegicus [26]): 41.05%; inhibition [27]: 76.7%; Activity (Rattus norvegicus [28]): 1.81 g/dL
3 | Nc1ccc(-c2nnc(Cn3nc(-c4ccccc4)c(-c4ccccc4)nc3=O)o2)cc1 | 51.89 | 49.23 | Non-toxic | 39.11 | 74.57 | Non-toxic | 33.85 | 31.14 | 56.96 | 56.29 | 47.9 | 12.45 | Non-toxic | 3.72 | 58.83 | 20.64 | Non-toxic | 93.92 | 43.4 | 24.02 | inhibition (INH) (Rattus norvegicus [21]): 55.96%; inhibition (INH) (Rattus norvegicus [22]): 16.45%; inhibition (INH) (Rattus norvegicus [23]): 41.76%; Activity (Rattus norvegicus [24]): 0.86 mg/dL; inhibition (INH) (Mus musculus [25]): 71.85%; inhibition (INH) (Rattus norvegicus [26]): 45.8%; inhibition [27]: 80.3%; Activity (Rattus norvegicus [28]): 1.86 g/dL
